Molecular target: ABCB1 (Homo sapiens, UniProt P08183)
Sequence (P08183 whole entry): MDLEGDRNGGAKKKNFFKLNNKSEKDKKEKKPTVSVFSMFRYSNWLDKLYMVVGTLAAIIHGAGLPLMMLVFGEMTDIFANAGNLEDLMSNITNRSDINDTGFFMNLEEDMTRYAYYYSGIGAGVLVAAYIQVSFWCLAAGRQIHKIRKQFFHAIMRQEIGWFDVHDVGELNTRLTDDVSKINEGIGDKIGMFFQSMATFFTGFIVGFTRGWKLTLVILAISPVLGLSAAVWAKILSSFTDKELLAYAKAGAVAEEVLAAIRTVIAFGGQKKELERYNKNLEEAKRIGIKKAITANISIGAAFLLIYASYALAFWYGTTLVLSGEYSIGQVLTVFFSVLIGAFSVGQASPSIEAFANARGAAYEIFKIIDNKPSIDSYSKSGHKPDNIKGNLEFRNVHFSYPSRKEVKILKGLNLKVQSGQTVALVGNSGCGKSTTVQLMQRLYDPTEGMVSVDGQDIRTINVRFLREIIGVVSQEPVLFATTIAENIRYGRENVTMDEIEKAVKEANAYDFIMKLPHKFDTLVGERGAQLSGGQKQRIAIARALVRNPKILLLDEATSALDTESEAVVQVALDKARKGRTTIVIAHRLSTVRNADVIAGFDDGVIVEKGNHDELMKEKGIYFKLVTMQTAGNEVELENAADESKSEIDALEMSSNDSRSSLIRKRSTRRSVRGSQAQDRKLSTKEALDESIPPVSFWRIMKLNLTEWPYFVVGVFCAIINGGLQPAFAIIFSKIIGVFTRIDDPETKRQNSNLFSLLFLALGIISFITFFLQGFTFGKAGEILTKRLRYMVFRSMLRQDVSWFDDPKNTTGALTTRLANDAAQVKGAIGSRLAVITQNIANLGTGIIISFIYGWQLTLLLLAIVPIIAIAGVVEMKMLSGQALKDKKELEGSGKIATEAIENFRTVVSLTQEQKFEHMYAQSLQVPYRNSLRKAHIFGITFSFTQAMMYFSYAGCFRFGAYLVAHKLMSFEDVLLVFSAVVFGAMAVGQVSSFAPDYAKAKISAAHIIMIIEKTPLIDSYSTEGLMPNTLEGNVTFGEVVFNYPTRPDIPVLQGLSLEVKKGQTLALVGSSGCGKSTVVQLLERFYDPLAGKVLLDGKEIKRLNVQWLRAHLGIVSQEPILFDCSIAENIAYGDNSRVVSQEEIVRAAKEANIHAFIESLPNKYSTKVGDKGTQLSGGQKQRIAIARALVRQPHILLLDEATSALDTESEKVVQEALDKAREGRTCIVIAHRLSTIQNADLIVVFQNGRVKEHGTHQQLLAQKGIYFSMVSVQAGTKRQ

`CC(=O)O[C@H]1C(=O)[C@@]2(C)[C@H]([C@H](OC(=O)c3ccccc3)[C@]3(O)C[C@H](OC(=O)[C@H](O)[C@@H](NC(=O)c4ccccc4)c4ccccc4)C(C)=C1C3(C)C)[C@]1(OC(C)=O)CO[C@@H]1C[C@@H]2O` [paclitaxel] was tested, and the “radiolabelled substrate efflux from ABCB1-overexpressing cells” value was “selonsertib significantly decreased the efflux of [^3H]-paclitaxel in ABCB1-overexpressing cell lines KB-C2 and SW620/Ad300”.

Reference: paper PMC8132112 (Cancer letters, 2018)
